# Results as given in US7781183B2 (priority 2003, dated 2010).
# “Also recorded” adds a separate entry of the source.
# What was measured:
# J774A.1 cells = type: cell-based
# [1] = target: anthrax lethal factor protease (Bacillus anthracis, UniProt P15917); assay: biochemical; type: biochemical
# Sequence of anthrax lethal factor protease (P15917 34-809 limits assumed): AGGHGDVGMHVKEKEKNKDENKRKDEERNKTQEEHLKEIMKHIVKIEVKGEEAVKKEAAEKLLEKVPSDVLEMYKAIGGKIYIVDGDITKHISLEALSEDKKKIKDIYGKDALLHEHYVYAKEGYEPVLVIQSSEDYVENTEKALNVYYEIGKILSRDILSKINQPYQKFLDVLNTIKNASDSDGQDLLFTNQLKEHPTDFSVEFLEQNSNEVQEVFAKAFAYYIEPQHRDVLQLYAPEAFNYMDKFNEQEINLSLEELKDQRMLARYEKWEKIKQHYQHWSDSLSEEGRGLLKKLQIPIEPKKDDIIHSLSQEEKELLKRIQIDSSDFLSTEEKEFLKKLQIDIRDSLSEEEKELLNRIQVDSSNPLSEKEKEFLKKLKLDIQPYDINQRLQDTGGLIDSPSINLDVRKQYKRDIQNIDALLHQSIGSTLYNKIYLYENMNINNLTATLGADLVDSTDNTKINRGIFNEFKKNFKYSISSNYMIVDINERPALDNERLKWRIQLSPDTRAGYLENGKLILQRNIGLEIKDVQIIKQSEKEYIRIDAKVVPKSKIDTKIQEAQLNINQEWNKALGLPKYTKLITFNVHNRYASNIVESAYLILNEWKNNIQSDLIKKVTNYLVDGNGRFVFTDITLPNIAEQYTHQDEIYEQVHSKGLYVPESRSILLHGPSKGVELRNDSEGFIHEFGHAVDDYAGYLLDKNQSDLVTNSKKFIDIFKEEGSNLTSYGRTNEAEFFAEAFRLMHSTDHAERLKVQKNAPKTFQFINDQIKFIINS
structure (smiles),measurement,setting,value
Cc1cc(N)c2cc(NC(=O)Nc3ccc4nc(C)cc(N)c4c3)ccc2n1 [NSC 12155],protection (in words),J774A.1 cells,lower protection; also recorded: some protection
same,Inhibition type,[1],competitive inhibition
same,Ki,[1],0.5 µM
same,Km(app) with inhibitor concentration,[1],increased
same,effect on the Vmax,[1],no effect
same,inhibition at 20 µM,[1],95%
same,inhibition of LF activity (in words),[1],strong inhibition
N=C(N)c1ccc(Oc2ccc(-c3cc4ccc(C(=N)N)cc4[nH]3)cc2)cc1 [NSC 240898],Percent Inhibition,[1],72
N=C(N)c1ccc2[nH]c(/C=C/c3cc4cc(C(=N)N)ccc4o3)cc2c1 [NSC 290107],Percent Inhibition,[1],85
N=C(N)c1ccc2cc(/C=C/c3cc4ccc(C(=N)N)cc4o3)[nH]c2c1 [NSC 294200],Percent Inhibition,[1],92
C(=C\c1cc2ccc(C3=NCCN3)cc2o1)/c1cc2cc(C3=NCCN3)ccc2[nH]1 [NSC 294201],Percent Inhibition,[1],88
N=C(N)c1ccc2[nH]c(/C=C/c3cc4ccc(C(=N)N)cc4o3)cc2c1 [NSC 294203],Percent Inhibition,[1],92
C(=C\c1cc2ccc(C3=NCCN3)cc2o1)/c1cc2cc(C3=NCCN3)ccc2[nH]1 [NSC 294204],Percent Inhibition,[1],84
O=C(Nc1ccc(C2=NCCN2)cc1)c1cc2ccc(C3=NCCN3)cc2[nH]1 [NSC 294206],Percent Inhibition,[1],56
C(=C\c1cc2ccc(C3=NCCN3)cc2o1)/c1cc2ccc(C3=NCCN3)cc2o1 [NSC 294494],Percent Inhibition,[1],29
N=C(N)c1ccc(-c2[nH]c3cc(C(=N)N)ccc3c2N)cc1 [NSC 300509],Percent Inhibition,[1],46
C/C(=C\c1ccc(/C=C/c2cc3ccc(C4=NCCN4)cc3[nH]2)[nH]1)C1=NCCN1 [NSC 317880],Percent Inhibition,[1],93
c1cc2cc(-c3ccc(-c4cc5ccc(C6=NCCN6)cc5[nH]4)cc3)[nH]c2cc1C1=NCCN1 [NSC 317881],Percent Inhibition,[1],97
N=C(N)c1ccc(/C=C/c2cc3cc(C(=N)N)ccc3[nH]2)cc1 [NSC 317884],Percent Inhibition,[1],95
N=C(N)c1ccc(/C=C/c2cc3ccc(C(=N)N)cc3[nH]2)cc1 [NSC 317886],Percent Inhibition,[1],93
N=C(N)N/N=C/c1ccc(-c2cc3ccc(/C=N/NC(=N)N)cc3s2)cc1 [NSC 341909],Percent Inhibition,[1],90
c1cc(-c2[nH]c3cc(C4=NCCN4)ccc3c2-c2cc3ccc(C4=NCCN4)cc3[nH]2)ccc1C1=NCCN1 [NSC 341911],Percent Inhibition,[1],64
CCOc1ccc2c(N)c3ccc(/N=N/c4ccc(N)nc4N)cc3nc2c1 [NSC 354961],Percent Inhibition,[1],95
Nc1ccc(/N=N/c2ccc3cc4ccc(/N=N/c5ccc(N)nc5N)cc4nc3c2)c(N)n1 [NSC 354962],Percent Inhibition,[1],40
Nc1c(/C=C/c2cc3cc(C4=NCCN4)ccc3o2)[nH]c2cc(C3=NCCN3)ccc12 [NSC 357756],protection,J774A.1 cells,about 96%
same,protection (in words),J774A.1 cells,some protection
same,Inhibition type,[1],competitive inhibition
same,Ki,[1],4.9 ± 1.7 µM
same,Km(app) with inhibitor concentration,[1],increased
same,effect on the Vmax,[1],no effect
same,inhibition at 20 µM,[1],90%
N=C(N)c1ccc(N=Nc2cc(N=Nc3ccc(C(=N)N)cc3)c(O)cc2O)cc1 [NSC 359465],inhibition at 20 µM,[1],48%
c1cc2cc(-c3ccc4cc(-c5ccc6oc(C7=NCCN7)cc6c5)[nH]c4c3)[nH]c2cc1C1=NCCN1 [NSC 369718],protection (in words),J774A.1 cells,lower protection; also recorded: some protection
same,inhibition at 20 µM,[1],90%
c1cc(-c2nc3cc(-c4nc5cc(C6=NCCN6)ccc5[nH]4)ccc3[nH]2)ccc1C1=NCCN1 [NSC 369721],protection (in words),J774A.1 cells,ineffective
same,Inhibition type,[1],competitive inhibition
same,Ki,[1],4.2 ± 0.21 µM
same,Km(app) with inhibitor concentration,[1],increased
same,effect on the Vmax,[1],no effect
same,inhibition at 20 µM,[1],90%
c1cc(C2=NCCN2)ccc1Nc1ccc(-c2cc3ccc(C4=NCCN4)cc3[nH]2)cc1 [NSC 377362],inhibition at 20 µM,[1],33%
